The test system of data set [1] is Splenocyte. Briefly: Immunomodulatory activity in Wistar rat splenocytes assessed as decrease in LPS-induced cell proliferation at 500 uM after 48 hrs by MTT assay. The data set is classed as functional, cell-based.
Data set [2] relates to Splenocyte. Briefly: Immunomodulatory activity in Wistar rat splenocytes assessed as decrease in ConA-induced cell proliferation at 0.1 to 500 uM after 48 hrs by MTT assay. Format: functional, cell-based. The note with it: dose 0.1-500 µM.
The test system of data set [3] is Splenocyte. Briefly: Immunomodulatory activity in Wistar rat splenocytes assessed as decrease in LPS-induced cell proliferation at 0.1 to 10 uM after 48 hrs by MTT assay. The data set is classed as functional, cell-based. The note with it: dose 0.1-10 µM.
Data set [4] is described as follows: Cytotoxicity against Wistar rat splenocytes assessed as cell viability at 0.1 uM after 48 hrs by MTT assay. The note with it: splenocyte. Format: tissue-based. (Tetrazolium assays rely on reduction of a dye to a coloured formazan, in cell work by metabolically active cells.)
Data set [5] is described as follows: Cytotoxicity against Wistar rat splenocytes assessed as reduction in cell viability at 100 to 500 uM after 24 hrs by MTT assay. Format: tissue-based. The following applies: splenocyte, dose 100-500 µM.
Data set [6] in a line: Cytotoxicity against Wistar rat splenocytes assessed as cell viability at 100 uM after 48 hrs by MTT assay relative to control. The note with it: read-out: Activity. Format: tissue-based, Splenocyte.
Data set [7] is described as follows: Cytotoxicity against Wistar rat splenocytes assessed as reduction in cell viability at 0.1 to 500 uM after 48 hrs by MTT assay. Format: tissue-based. The note with it: splenocyte, dose 0.1-500 µM.
In data set [8] the test system is Splenocyte. Briefly: Immunomodulatory activity in Wistar rat splenocytes assessed as decrease in LPS-induced cell proliferation at 0.1 to 100 uM after 48 hrs by MTT assay. Format: functional, cell-based. The note with it: dose 0.1-100 µM.
The nature of data set [9]: Cytotoxicity against Wistar rat splenocytes assessed as cell viability at >10 uM after 24 to 48 hrs by MTT assay. Format: tissue-based. The note with it: splenocyte, time 24-48 hrs.
Data set [10] can be described thus: Cytotoxicity against Wistar rat splenocytes assessed as reduction in cell viability at 100 uM after 48 hrs by MTT assay relative to control. The data set is classed as tissue-based. The following applies: splenocyte.

Calls of active or inactive are those of the source. The rule behind the calls is not given here.

For `C[C@H]1CCC2=C(C(C)(C)O)CC(C)(C)C[C@@H]21` (relative stereo), the outcome in the data set with Splenocyte [1] was inactive. For the same compound, the outcome with Splenocyte [2] and in the data set with Splenocyte [3] was Active. For the same compound, the Activity entry in data set [4] is “Non-Toxic”; in [5], “Toxic”.

In the case of `C[C@@H]1/C=C/C(C)(C)[C@H](O)CC/C(CO)=C/CC1` (relative stereo), the outcome in the data set with Splenocyte [1] was inactive. The result with Splenocyte [2] and in the data set with Splenocyte [3] was Active. Besides, the viability at 48 h, 100 µM in data set [6] was found to be 60%. Further, the Activity entry in data set [7] and in data set [5] was “Toxic” each time.

Consider `C/C1=C\[C@@H]2[C@@H](CC/C(CO)=C/CC1)C2(C)C` (relative stereo), for which the outcome in the data set with Splenocyte [8] was inactive. The outcome in the data set on Splenocyte [2] was Active. Besides, the Activity result in [9] and in data set [5] was “Toxic” each time.

In the case of `C[C@@H]1C[C@H]2[C@@H]3CCC4=CC(=O)C=C[C@]4(C)[C@@]3(F)[C@@H](O)C[C@]2(C)[C@@]1(O)C(=O)CO` [DEXAMETHASONE], the Activity in data set [10] is 65%.

Take `C[C@@H]1/C=C/[C@H](C(C)(C)O)CC/C(CO)=C/CC1` (relative stereo): the result in the data set on Splenocyte [1] was inactive. Further, the outcome in the data set on Splenocyte [2] and in the data set with Splenocyte [3] was Active. In addition, the Activity entry in data set [9] and in [5] was “Toxic” throughout.

The record behind these values is ChEMBL document CHEMBL4673339, “Immunomodulatory Constituents of Conocephalum conicum (Snake Liverwort) and the Relationship of Isolepidozenes to Germacranes and Humulanes” (J Nat Prod, 2020).
